Data taken from PubChem BioAssay AID212 (DTP/NCI, 2004).
“And” between values parts separate entries of the source, which are not always exact repeats. Equal entries are not always repeated. Inconclusive results are not listed.

Tested on: BDF1 mice, colon carcinoma 38 sc, T/C %
Assay: NCI In Vivo Anticancer Drug Screen. Data for tumor model Colon Carcinoma 38 (subcutaneous) in B6D2F1 (BDF1) mice
Settings: endpoint: median tumor weight (est.), schedule: Q07DX002 (ip), higher = larger tumour
Procedure, shortened: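 Mice with transplanted tumors are treated with compound or vehicle. Survival or tumor size is then measured in both groups. The ratio of treated to control gives the reported figure.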

[1] = dose: 12.5 mg/kg/injection, vehicle: saline with Tween-80
[2] = dose: 25.0 mg/kg/injection, vehicle: saline with Tween-80
[3] = dose: 50.0 mg/kg/injection, vehicle: saline with Tween-80
[4] = dose: 100.0 mg/kg/injection, vehicle: saline with Tween-80
[5] = dose: 200.0 mg/kg/injection, vehicle: saline with Tween-80
[6] = dose: 400.0 mg/kg/injection, vehicle: saline with Tween-80
[7] = dose: 25.0 mg/kg/injection, vehicle: Klucel (hydroxypropylcellulose) (HPC)
[8] = dose: 50.0 mg/kg/injection, vehicle: Klucel (hydroxypropylcellulose) (HPC)
[9] = dose: 12.5 mg/kg/injection, vehicle: Klucel (hydroxypropylcellulose) (HPC)
[10] = dose: 100.0 mg/kg/injection, vehicle: Klucel (hydroxypropylcellulose) (HPC)
[11] = dose: 100.0 mg/kg/injection, vehicle: saline
[12] = dose: 200.0 mg/kg/injection, vehicle: Klucel (hydroxypropylcellulose) (HPC)
[13] = dose: 3.12 mg/kg/injection, vehicle: saline
[14] = dose: 6.25 mg/kg/injection, vehicle: saline
[15] = dose: 12.5 mg/kg/injection, vehicle: saline
[16] = dose: 25.0 mg/kg/injection, vehicle: saline

Compound: O=c1c(O)c(-c2cc(O)c(O)c(O)c2)oc2cc(O)cc(O)c12
- T/C (dose: 6.25 mg/kg/injection, vehicle: other): 75 % of control
- T/C (dose: 12.5 mg/kg/injection, vehicle: other): 87 % of control
- T/C [1]: 152 % of control and 172 % of control
- T/C (dose: 25.0 mg/kg/injection, vehicle: other): 73 % of control
- T/C [2]: 113 % of control and 107 % of control
- T/C (dose: 50.0 mg/kg/injection, vehicle: other): 96 % of control
- T/C [3]: 120 % of control and 107 % of control
- T/C (dose: 100.0 mg/kg/injection, vehicle: other): 65 % of control
- T/C [4]: 161 % of control and 214 % of control
- T/C (dose: 200.0 mg/kg/injection, vehicle: other): 98 % of control
- T/C [5]: 187 % of control
- T/C (dose: 400.0 mg/kg/injection, vehicle: other): 77 % of control
- T/C [6]: 116 % of control and 100 % of control

Compound: Cn1c2nc(=O)n(-c3ccccc3)c(=O)c-2nc2c1CCCC2
- T/C [2]: 72 % of control
- T/C [4]: 70 % of control and 74 % of control
- T/C [5]: 90 % of control

Compound: COc1cccc(C2NC(=O)c3c(n[nH]c3N)S2)c1O (stereo unspecified)
- T/C [2]: 102 % of control
- T/C [3]: 106 % of control
- T/C [4]: 90 % of control
- T/C [5]: 94 % of control
- T/C [6]: 59 % of control

Compound: C/C(=N\N=C(/[Se])N1CC2CCC(CC2)C1)c1ccccn1
- T/C (dose: 3.0 mg/kg/injection, vehicle: Klucel (hydroxypropylcellulose) (HPC)): 111 % of control
- T/C (dose: 6.0 mg/kg/injection, vehicle: Klucel (hydroxypropylcellulose) (HPC)): 67 % of control
- T/C (dose: 12.0 mg/kg/injection, vehicle: Klucel (hydroxypropylcellulose) (HPC)): 91 % of control
- T/C [7]: 106 % of control
- T/C [8]: 45 % of control

Compound: Cc1cc(C)c(-c2cc(O)c(C)cc2O)c(C)c1
- T/C [9]: 83 % of control
- T/C [8]: 82 % of control

Compound: O=c1[nH]cccc1O
- T/C (dose: 32.0 mg/kg/injection, vehicle: saline with Tween-80): 101 % of control
- T/C (dose: 62.0 mg/kg/injection, vehicle: saline with Tween-80): 177 % of control
- T/C (dose: 62.5 mg/kg/injection, vehicle: saline with Tween-80): 100 % of control
- T/C (dose: 64.0 mg/kg/injection, vehicle: saline with Tween-80): 76 % of control
- T/C (dose: 125.0 mg/kg/injection, vehicle: saline with Tween-80): 87 % of control
- T/C (dose: 128.0 mg/kg/injection, vehicle: saline with Tween-80): 94 % of control
- T/C (dose: 250.0 mg/kg/injection, vehicle: saline with Tween-80): 87 % of control
- T/C (dose: 256.0 mg/kg/injection, vehicle: saline with Tween-80): 58 % of control
- T/C (dose: 512.0 mg/kg/injection, vehicle: saline with Tween-80): 20 % of control

Compound: Cn1cnc([N+](=O)[O-])c1[Se]c1nc(N)nc2nc[nH]c12
- T/C (dose: 3.12 mg/kg/injection, vehicle: water): 62 % of control
- T/C (dose: 6.25 mg/kg/injection, vehicle: water): 36 % of control
- T/C (dose: 12.5 mg/kg/injection, vehicle: water): 87 % of control
- T/C (dose: 25.0 mg/kg/injection, vehicle: water): 73 % of control
- T/C (dose: 50.0 mg/kg/injection, vehicle: water): 54 % of control
- T/C (dose: 100.0 mg/kg/injection, vehicle: water): 57 % of control

Compound: COc1cc(Cc2nccc3cc(OC)c(OC)cc23)c(C(C)=O)cc1OC
- T/C (dose: 12.5 mg/kg/injection, vehicle: suspension in saline): 166 % of control
- T/C (dose: 25.0 mg/kg/injection, vehicle: suspension in saline): 108 % of control
- T/C (dose: 50.0 mg/kg/injection, vehicle: suspension in saline): 110 % of control
- T/C (dose: 100.0 mg/kg/injection, vehicle: suspension in saline): 69 % of control

Compound: CN1CCc2c(c3ccccc3c3ccccc23)C1
- T/C (dose: 6.25 mg/kg/injection, vehicle: Klucel (hydroxypropylcellulose) (HPC)): 111 % of control
- T/C [9]: 93 % of control
- T/C [8]: 86 % of control
- T/C [10]: 72 % of control

Compound: O=C(O)Cc1cccc2c(=O)cc(-c3ccco3)oc12
- T/C (dose: 50.0 mg/kg/injection, vehicle: saline): 74 % of control
- T/C [11]: 53 % of control

Compound: CC1(C)CC1(Br)Br
- T/C [1]: 155 % of control
- T/C [2]: 110 % of control and 96 % of control
- T/C [3]: 150 % of control
- T/C [4]: 124 % of control and 106 % of control
- T/C [5]: 155 % of control
- T/C [6]: 107 % of control

Compound: Cc1ccc2c(ccc(CC(=S)[S-])[n+]2C)c1
- T/C [10]: 111 % of control and 93 % of control
- T/C [12]: 122 % of control

Compound: NC(=S)N/N=C\c1ncccc1OCc1cccc(N)c1
- T/C (dose: 25.0 mg/kg/injection, vehicle: distilled water + Tween-80): 80 % of control
- T/C (dose: 50.0 mg/kg/injection, vehicle: distilled water + Tween-80): 79 % of control
- T/C (dose: 100.0 mg/kg/injection, vehicle: distilled water + Tween-80): 78 % of control
- T/C (dose: 200.0 mg/kg/injection, vehicle: distilled water + Tween-80): 71 % of control
- T/C (dose: 400.0 mg/kg/injection, vehicle: distilled water + Tween-80): 80 % of control

Compound: COC1=C(OC)C(=O)C(Sc2ccc3ccccc3c2)=CC1=O
- T/C (dose: 6.25 mg/kg/injection, vehicle: saline with Tween-80): 86 % of control
- T/C [1]: 63 % of control
- T/C [3]: 90 % of control and 98 % of control
- T/C [4]: 87 % of control and 88 % of control
- T/C [5]: 74 % of control

Compound: CC(=O)NCCCCCCNC(C)=O
- T/C [11]: 77 % of control
- T/C (dose: 200.0 mg/kg/injection, vehicle: saline): 66 % of control and 81 % of control
- T/C (dose: 400.0 mg/kg/injection, vehicle: saline): 108 % of control
- T/C (dose: 1600.0 mg/kg/injection, vehicle: saline): 90 % of control and 91 % of control

Compound: ClC1C(Cl)C(Cl)C(Cl)C(Cl)C1Cl (stereo unspecified)
- T/C [7]: 103 % of control
- T/C [8]: 88 % of control
- T/C (dose: 56.0 mg/kg/injection, vehicle: saline with Tween-80): 109 % of control and 95 % of control
- T/C [10]: 71 % of control
- T/C (dose: 112.0 mg/kg/injection, vehicle: saline with Tween-80): 69 % of control and 82 % of control
- T/C [12]: 113 % of control
- T/C (dose: 400.0 mg/kg/injection, vehicle: Klucel (hydroxypropylcellulose) (HPC)): 118 % of control
- T/C (dose: 450.0 mg/kg/injection, vehicle: saline with Tween-80): 80 % of control and 85 % of control

Compound: C[C@@H]1C[C@@H]([C@H](O)CC2CC(=O)NC(=O)C2)C(=O)[C@@H](C)C1
- T/C [3]: 162 % of control
- T/C [4]: 90 % of control
- T/C [5]: 60 % of control

Compound: O=C1C=C(C2OC(CO)C(O)C2O)C(=O)N1 (stereo unspecified)
- T/C (dose: 1.56 mg/kg/injection, vehicle: saline): 66 % of control
- T/C [13]: 56 % of control
- T/C [14]: 70 % of control
- T/C [15]: 113 % of control
- T/C [16]: 83 % of control

Compound: NC(=O)c1ccc[n+](Cc2c(Cl)cccc2Cl)c1
- T/C [13]: 83 % of control and 94 % of control
- T/C [14]: 68 % of control
- T/C [15]: 97 % of control
- T/C [16]: 116 % of control and 94 % of control
- T/C [11]: 85 % of control and 90 % of control
